# Values quoted from earlier work in patent US10548876B2 (Race Oncology Ltd., priority 2013, dated 2020).
# Where a name gives a salt, the structure may show the parent alone. Read-outs that look alike come from different tables or passages of the source.
# Tests used:
# [1] = one report; interpreted as tissue sequestration with depot effect
# [2] = not given; remark: listed apart in the source
# [3] = system: refractory malignant melanoma
# [4] = 72-hr infusion
# [5] = over 96 hr
# P-glycoprotein = P-glycoprotein (Homo sapiens, UniProt P08183)
# Sequence of P-glycoprotein (P08183 whole entry): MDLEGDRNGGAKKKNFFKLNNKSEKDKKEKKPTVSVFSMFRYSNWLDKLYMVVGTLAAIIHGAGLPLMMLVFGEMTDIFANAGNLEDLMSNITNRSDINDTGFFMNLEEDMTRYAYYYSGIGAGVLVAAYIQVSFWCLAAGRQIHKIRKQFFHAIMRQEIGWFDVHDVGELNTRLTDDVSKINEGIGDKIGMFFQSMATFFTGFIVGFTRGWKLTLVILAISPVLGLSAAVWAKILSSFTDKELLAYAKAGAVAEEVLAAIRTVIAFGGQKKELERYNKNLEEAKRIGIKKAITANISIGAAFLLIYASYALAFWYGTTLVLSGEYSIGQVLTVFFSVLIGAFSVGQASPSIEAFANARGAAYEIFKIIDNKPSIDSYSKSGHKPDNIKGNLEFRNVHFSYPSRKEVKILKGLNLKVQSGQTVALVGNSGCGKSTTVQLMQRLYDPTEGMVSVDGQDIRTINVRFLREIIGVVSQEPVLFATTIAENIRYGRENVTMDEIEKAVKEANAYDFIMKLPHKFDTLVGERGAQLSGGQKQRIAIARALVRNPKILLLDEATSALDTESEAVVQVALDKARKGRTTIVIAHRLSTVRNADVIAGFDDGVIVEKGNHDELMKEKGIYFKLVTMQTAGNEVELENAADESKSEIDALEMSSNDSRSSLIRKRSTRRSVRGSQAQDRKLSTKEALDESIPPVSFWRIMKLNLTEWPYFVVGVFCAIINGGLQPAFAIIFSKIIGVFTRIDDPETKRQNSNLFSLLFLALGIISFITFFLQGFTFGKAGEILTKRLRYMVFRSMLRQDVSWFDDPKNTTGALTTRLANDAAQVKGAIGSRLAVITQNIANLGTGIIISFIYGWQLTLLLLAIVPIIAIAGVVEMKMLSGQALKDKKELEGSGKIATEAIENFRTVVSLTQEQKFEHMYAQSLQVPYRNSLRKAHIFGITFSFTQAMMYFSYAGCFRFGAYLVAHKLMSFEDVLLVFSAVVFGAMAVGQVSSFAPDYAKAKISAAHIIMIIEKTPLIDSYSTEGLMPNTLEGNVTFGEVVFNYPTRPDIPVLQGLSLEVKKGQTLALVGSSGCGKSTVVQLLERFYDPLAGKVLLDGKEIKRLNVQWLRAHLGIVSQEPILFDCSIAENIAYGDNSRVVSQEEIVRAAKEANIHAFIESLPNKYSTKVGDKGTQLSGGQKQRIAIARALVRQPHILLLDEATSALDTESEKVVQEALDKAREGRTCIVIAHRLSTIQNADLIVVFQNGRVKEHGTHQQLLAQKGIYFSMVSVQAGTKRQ
# [6] = not given; remark: listed apart in the source
# metastatic breast cancer = details: patients with metastatic breast cancer
# [7] = system: hepatic microsomal enzymes; details: specific metabolites not identified
# [8] = 5 day schedule of 60 min infusions
# [9] = not given; remark: listed apart in the source
# human colon cancer = human colon cancer tested in vitro or in vivo
# double-stranded DNA = details: under physiological conditions, threading mode
# [10] = system: colon 26, Lewis lung, Ridgway osteosarcoma, B16, Lieberman plasma cell, P388 or L1210 cancer cells
# [11] = physiologic pH
# [12] = triphasic elimination
# [13] = not given; remark: listed apart in the source
# [14] = in vivo
# [15] = molecular target: glycogen synthase kinase-3β (GSK-3β) (Homo sapiens, UniProt P49841)
# Sequence of glycogen synthase kinase-3β (GSK-3β) (P49841 whole entry, species assumed): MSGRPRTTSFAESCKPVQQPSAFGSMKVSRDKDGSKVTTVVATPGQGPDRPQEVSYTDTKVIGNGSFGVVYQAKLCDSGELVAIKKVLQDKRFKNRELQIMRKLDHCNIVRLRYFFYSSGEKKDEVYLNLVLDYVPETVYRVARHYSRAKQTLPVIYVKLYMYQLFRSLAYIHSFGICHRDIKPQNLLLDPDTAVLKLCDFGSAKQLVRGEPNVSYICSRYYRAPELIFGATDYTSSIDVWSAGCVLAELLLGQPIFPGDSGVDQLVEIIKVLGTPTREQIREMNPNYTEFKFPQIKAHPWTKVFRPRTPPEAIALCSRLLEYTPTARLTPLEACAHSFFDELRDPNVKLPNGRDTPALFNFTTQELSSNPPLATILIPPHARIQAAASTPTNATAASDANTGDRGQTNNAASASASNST
# telomerase = details: by interfering with substrate recognition
# [16] = system: telomerase-expressing cells and ALT-positive cell lines
# [17] = local injection; physically decomposes bisantrene
# [18] = patients, 90 min infusion at 260 mg/m^2
smiles,measurement,setting,value
"C(=NNC1=NCCN1)c1c2ccccc2c(C=NNC2=NCCN2)c2ccccc12 [bisantrene, 9,10-anthracenedicarboxaldehyde bis[(4,5-dihydro-1H-imidazol-2-yl)hydrazine]dihydrochloride]",cardiotoxicity,animals,not cardiotoxic
same,toxicity compared with doxorubicin,cardiotoxicity context,less than that of the anthracycline doxorubicin
same,toxicities observed,"dogs and monkeys, high doses","leukopenia, anorexia, diarrhea, injection site necrosis, enterocolitis, muscle degeneration, and pulmonary edema"
same,volume of distribution,[1],687 L/m^2
same,DNA strand breaks,"L1210 leukemia cells; L1210 leukemia cells, typical of inhibition of DNA topoisomerase II",induce protein-associated DNA strand breaks
same,DNA supercoiling,L1210 leukemia cells; indicative of DNA intercalation,induce altered DNA supercoiling
same,patients reporting malaise,[2]; Yap et al. 1982,up to one-half of patients
same,patients who experienced anaphylactoid reactions,[2]; following a bisantrene infusion,Up to 10%
same,nausea or vomiting,"[2]; human, in vivo",very little nausea or vomiting
same,radioangiocardiographic monitoring of cardiac function,[2]; patients receiving the drug,no decrease in ejection fraction
same,cardiotoxicity compared with other agents,[2]; phase III trial,less cardiotoxic than mitoxantrone or doxorubicin
same,Alopecia (hair loss) compared with doxorubicin,[2]; randomized trial in advanced breast cancer,less intense
same,activity,[3],inactive
same,plasma clearance,[4],1306±179 mL/min/m^2
same,plasma concentration,[4]; dose of 56 mg/m^2,12 ± 6 ng/mL
same,plasma concentration,[4]; dose of 260 mg/m^2,55 ± 8 ng/mL
same,urinary excretion of the dose,[4]; in 24 hr,4.6%
same,administered dose found in the urine,[5],3.4±1.1%
same,time after treatment for which cytostatic macrophages could be isolated from peritoneal exudate,macrophages; cytostatic in cultures of P815 (mastocytoma) tumor cells,4 weeks
same,minimal effective in vivo dose,macrophages; macrophage activation,~25 mg/kg
same,interaction with P-glycoprotein,P-glycoprotein,substrate for P-glycoprotein
same,dose excreted in the urine,[6]; in vivo,Less than 7%
same,route by which the majority of the drug is eliminated,[6]; in vivo,hepatobiliary route
same,area under the plasma concentration×time curve,[6]; intravenous dose of 260 mg/m^2,4400 µg·h/mL
same,area under the plasma concentration×time curve,[6]; intravenous dose of 340 mg/m^2,5700 µg·h/mL
same,beta phase,[6]; three phases of elimination,approximately 1.5 hours
same,initial distributive phase,[6]; three phases of elimination,6 min
same,activity in Phase II clinical trials,metastatic breast cancer,active
same,effect on platelet aggregation,Human Platelets,inhibit platelet aggregation
same,metabolism in vitro,[7],substrate for hepatic microsomal enzymes
same,dose excreted in the urine,[8],7.1%
same,t½ α,[8],0.9 h
same,t½ β,[8],9.7 h
same,Maximally tolerated dose,"[9]; daily×5, repeat every 4 week (Spiegel et al. 1982)",80 mg/m^2
same,antitumor activity in phase I clinical trials,"[9]; hepatocellular cancer and hypernephroma (one patient each), lymphoma, myeloma, melanoma, renal cancer, tumors of the bladder and lung",showed activity
same,Thrombocytopenia,"[9]; human, in vivo",mild
same,major dose-limiting toxic effect,"[9]; human, in vivo",leukopenia
same,Maximally tolerated dose,[9]; monthly (every 3-4 week) (Von Hoff et al. 1981b),260 mg/m^2
same,Maximally tolerated dose,"[9]; monthly, patients with poor bone marrow reserve (Von Hoff et al. 1981b)",240 mg/mg^2
same,dose limiting toxicity (DLT),[9]; phase I doses between 190-430 mg/m^2 q3w,neutropenia
same,doses requiring a central line due to phlebitis,"[9]; phase I study, 72 h",over 156 mg/m^2
same,MTD,"[9]; phase I study, over 72 h",300 mg/m^2
same,nadir for myelosuppression,[9]; schedule of every 3 to 4 weeks,9 days
same,recovery from myelosuppression,[9]; schedule of every 3 to 4 weeks,≤ 19 days
same,Maximally tolerated dose,[9]; weekly×3 (Alberts et al. 1982),200 mg/m^2
same,Maximally tolerated dose,"[9]; weekly×3, patients with poor bone marrow reserve (Alberts et al. 1982)",150 mg/mg^2
same,Maximally tolerated dose,"[9]; weekly×3, repeat every 4-5 week (Yap et al. 1982)",150 mg/m^2
same,activity,human colon cancer,inactive
same,affinity constants,double-stranded DNA,above 10^6 M^−1
same,sensitivity in in vitro colony-forming assays,"Human tumor cells; breast, ovarian, renal, small cell and non-small cell lung cancer, lymphoma, acute myelogenous leukemia, melanoma, gastric, adrenal, head and neck cancer",sensitive
same,Activity in clonogenic assays from 684 patients,Human tumor cells; colorectal cancer,not in colorectal cancer
same,cross resistance,Human tumor cells; with Adriamycin and mitoxantrone,lack of cross resistance
same,activity in murine tumor models,[10]; P-388 leukemia and B-16 melanoma,antitumor activity
same,activity in cancer models,"[10]; intravenously (i.v.), intraperitoneally (i.p.), or subcutaneously (s.c.)",effective
same,activity in cancer models,[10]; orally,inactive
same,aqueous solubility,[11],lack of aqueous solubility
same,t½ α,[12]; another single dose study,3 min
same,t½ β,[12]; another single dose study,1 h
same,t½ γ,[12]; another single dose study,8 h
same,t½ α,[12]; first single dose study,3.44 min
same,t½ β,[12]; first single dose study,1.33 h
same,t½ γ,[12]; first single dose study,26.13 h
same,bound to plasma proteins,plasma proteins,More than 95%
same,administered dose excreted unchanged in the urine,[13]; in 24 hr,11.3%
same,plasma clearance,[13]; [18],735 mL/min/m^2
same,steady state volume of distribution (Vdss),[13]; [18],1845 L/m^2
same,Brain levels,[14],extremely low
same,tissues with the highest concentration (in descending order),[14],"kidney, liver, gallbladder, spleen, lung, and heart"
"CN1C(=O)/C(=C2/C(=O)Nc3ccccc32)c2ccccc21 [Meisoindigo, meisoindigo]",concentration of inhibition of GSK-3β,[15],5 to 50 nM
C(=N\NC1=NCCN1)/c1cccc2cc3c(/C=N/NC4=NCCN4)cccc3cc12 [Formula (III)],effect at the telomerase level,telomerase,suppressing its catalytic activity
same,apoptosis,[16],absence of apoptosis
same,cell cycle impairment,[16],G2M phase arrest
same,DNA damage response,"[16]; telomerase-expressing cells and ALT-positive cell lines, partially co-localize at the telomere",formation of γH2AX foci
O=C([O-])O.[Na+] [sodium bicarbonate],extravasation necrosis,[17],blocked
